The values that follow come from ChEMBL document CHEMBL3774306, “Bisimidazoline arylamides binding to the DNA minor groove: N1-hydroxylation enhances binding affinity and selectivity to AATT sites” (Medchemcomm, 2015).

Activity calls are given as the source filed them. The calls are words filed in the database; no cut-off is given here.

Assay [1] is described as follows: Binding affinity to biotin labelled 5'-CGCGCGCGTTTTCGCGCGCG-3' hairpin dsDNA (unknown origin) immobilized on biosensor chip by surface plasmon resonance analysis. Also noted: species or system Homo sapiens. A general note: Surface plasmon resonance follows binding to a sensor surface in real time, without labels.
The species named for assay [2] is Homo sapiens. The assay is described as follows: Ratio of primary binding constant to secondary binding constant for biotin labelled 5'-CGAATTCGTCTCCGAATTCG-3' hairpin dsDNA (unknown origin) immobilized on biosensor chip by surface plasmon resonance analysis.
The species named for assay [3] is Homo sapiens. Kind of assay: Ratio of primary binding constant to secondary binding constant for biotin labelled 5'-CATATATATCCCCATATATATG-3' hairpin dsDNA (unknown origin) immobilized on biosensor chip by surface plasmon resonance analysis.
Assay [4] in a line: Binding affinity to biotin labelled 5'-CATATATATCCCCATATATATG-3' hairpin dsDNA (unknown origin) immobilized on biosensor chip by surface plasmon resonance analysis. Also noted: species or system Homo sapiens.
The nature of assay [5]: Binding affinity to biotin labelled 5'-CGAATTCGTCTCCGAATTCG-3' hairpin dsDNA (unknown origin) immobilized on biosensor chip by surface plasmon resonance analysis. Also on record: species or system Homo sapiens.
The species named for assay [6] is Homo sapiens. The assay is described as follows: Selectivity ratio of Kd for biotin labelled 5'-CATATATATCCCCATATATATG-3' hairpin dsDNA (unknown origin) to Kd for biotin labelled 5'-CGAATTCGTCTCCGAATTCG-3' hairpin dsDNA (unknown origin).
The species named for assay [7] is Homo sapiens. The assay is described as follows: Binding affinity to CGCGCGCG dsDNA (unknown origin) assessed as spectral changes at 2.5 uM by UV-vis spectrophotometry.
The species named for assay [8] is Homo sapiens. The assay is described as follows: Binding affinity to CATATATAT dsDNA (unknown origin) assessed as spectral changes at 2.5 uM by UV-vis spectrophotometry.
Assay [9] is filed under the species Homo sapiens. The assay is described as follows: Binding affinity to CGAATTCG dsDNA (unknown origin) assessed as spectral changes at 2.5 uM by UV-vis spectrophotometry.
The nature of assay [10]: Binding affinity to fish sperm DNA assessed as hypochromicity change at 30 uM by UV-vis spectrophotometry relative to control. The following applies: Hyperoartia.
For assay [11], the species on record is Homo sapiens. The assay is described as follows: Binding affinity to GAATAATCGCGATTATTC dsDNA (39 bp) (unknown origin) assessed as slow binding constant.
The species entered for assay [12] is Homo sapiens. Kind of assay: Binding affinity to GAATAATCGCGATTATTC dsDNA (39 bp) (unknown origin) assessed as long lasting constant.
For assay [13], the species on record is Homo sapiens. Kind of assay: Binding affinity to CGAATTCG dsDNA (unknown origin) assessed as isosbestic point at 2.5 uM by UV-vis spectrophotometry.
The species entered for assay [14] is Homo sapiens. The assay is described as follows: Binding affinity to CATATATAT dsDNA (unknown origin) assessed as isosbestic point at 2.5 uM by UV-vis spectrophotometry.
The species entered for assay [15] is Homo sapiens. The assay is described as follows: Binding affinity to CGCGCGCG dsDNA (unknown origin) assessed as isosbestic point at 2.5 uM by UV-vis spectrophotometry.
The nature of assay [16]: Binding affinity to biotin labelled 5'-CATATATATCCCCATATATATG-3' hairpin dsDNA (unknown origin) immobilized on streptavidin-derivatized gold chip incubated for 5 mins followed by dissociation period of 5 mins by surface plasmon resonance analysis. Also on record: species or system Homo sapiens.
For assay [17], the species on record is Homo sapiens. Kind of assay: Selectivity ratio of Kd for biotin labelled 5'-CGCGCGCGTTTTCGCGCGCG-3' hairpin dsDNA (unknown origin) to Kd for biotin labelled 5'-CATATATATCCCCATATATATG-3' hairpin dsDNA (unknown origin).

Turning to `O=C(Nc1ccc(NC2=NCCN2)cc1)c1ccc(NC2=NCCN2)cc1`, the dissociation constant Kd – broadly, the constant that tells how readily two partners part at equilibrium – in assay [1] (read-out: Kd) is > 10 µM; in [4], 0.307 µM; in assay [5] it was 0.166 µM. Also, the Ratio in the assay filed under Homo sapiens [2] and in the assay listed under Homo sapiens [3] was 100 each time. The Selectivity ratio in the assay filed under Homo sapiens [6] was 1.5.

As for `CC/N=C(\N)Nc1ccc(NC(=O)c2ccc(N/C(N)=N/CC)cc2)cc1`, the Kd in [1] (read-out: Kd) was > 10 µM.

For the compound `c1cc(NC2=NCCN2)ccc1CCc1ccc(NC2=NCCN2)cc1`, the Kd in assay [1] (read-out: Kd) worked out at 19.6 µM; in assay [4] it was 4.35 µM; in assay [5], 2.78 µM. The Ratio in the assay listed under Homo sapiens [2] and in the assay listed under Homo sapiens [3] was 5 throughout.

In the case of `CC(C)/N=C(\N)Nc1ccc(NC(=O)c2ccc(N/C(N)=N/C(C)C)cc2)cc1`, the equilibrium dissociation constant (Kd) in assay [1] (read-out: Kd) is > 10 µM.

In the case of `CC/N=C(\N)Nc1ccc(NC(=O)Nc2ccc(N/C(N)=N/CC)cc2)cc1`, the equilibrium dissociation constant (Kd) result in [1] is “Not Active”; in assay [4] it was > 29 µM; in assay [5], > 29 µM.

In the case of `O=C(Nc1ccc(NC2=[N+]([O-])CCN2)cc1)c1ccc(NC2=[N+]([O-])CCN2)cc1`, the Kd in [1] (read-out: Kd) worked out at 18.5 µM; in assay [4], 0.273 µM; in [5] it was 0.077 µM. For the same compound, the Ratio in the assay listed under Homo sapiens [2] and in the assay listed under Homo sapiens [3] was 100 throughout. In addition, the result in the assay filed under Homo sapiens [7], in the assay listed under Homo sapiens [8] and in the assay listed under Homo sapiens [9] was Active. For the same compound, the Activity in assay [10] came to 9%. Besides, the Selectivity ratio in the assay listed under Homo sapiens [6] is 3.5.

As to `[O-][N+]1=C(Nc2ccc(Nc3cccc(NC4=[N+]([O-])CCN4)c3)cc2)NCC1`, the Kd stood at 66.7 µM in assay [1] (read-out: Kd), 1.79 µM in [4] and 0.568 µM in assay [5]. Further, the Ratio in the assay filed under Homo sapiens [2] and in the assay listed under Homo sapiens [3] was 100 in each case. Besides, the K in the assay filed under Homo sapiens [11] was 38 M⁻¹ s⁻¹; in the assay filed under Homo sapiens [12], 0.00265 s⁻¹. The Activity in the assay filed under Homo sapiens [13] amounted to 325 nm; in the assay filed under Homo sapiens [14], 335 nm. Further, the result in the assay listed under Homo sapiens [15] was inactive.

In the case of `CO[N+]1=C(Nc2ccc(NC(=O)c3ccc(NC4=[N+](OC)CCN4)cc3)cc2)NCC1`, the Kd was > 10 µM in assay [1] (read-out: Kd), 0.351 µM in [4] and 0.256 µM in assay [5]. Besides, the Ratio in the assay listed under Homo sapiens [2] and in the assay filed under Homo sapiens [3] was 100 in each case. The Activity in assay [10] is 9%. In the assay filed under Homo sapiens [6], the Selectivity ratio is 1.5.

As for `[O-][N+]1=C(Nc2ccc(CCc3ccc(NC4=[N+]([O-])CCN4)cc3)cc2)NCC1`, the results for the dissociation constant (Kd) in assay [1] (read-out: Kd), in assay [4] and in assay [5] were 76.9 µM, 4 µM and 0.87 µM, respectively. In addition, the Ratio in the assay listed under Homo sapiens [2] and in the assay listed under Homo sapiens [3] was 30 each time. Besides, in assay [10], the Activity came out at 9%.

Consider `c1cc(NC2=NCCN2)cc(Nc2ccc(NC3=NCCN3)cc2)c1`, for which the Kd result in [1] was “Not Active”; in assay [16], 2.17 µM; in assay [5], 2.7 µM. Further, the Ratio in the assay filed under Homo sapiens [2] and in the assay filed under Homo sapiens [3] was 100 each time.

As to `N=C(N)Nc1ccc(NC(=O)c2ccc(NC(=N)N)cc2)cc1`, in assay [1] (read-out: Kd), the Kd is > 10 µM.

For `CCO[N+]1=C(Nc2ccc(CCc3ccc(NC4=[N+](OCC)CCN4)cc3)cc2)NCC1`, the dissociation constant Kd in assay [1] (read-out: Kd), in assay [4] and in assay [5] was > 29 µM throughout. Also, the Ratio in the assay listed under Homo sapiens [2] and in the assay listed under Homo sapiens [3] was 100 each time. Moreover, the Activity in [10] came to 9%.

Turning to `O=C(Nc1ccc(NC2=NCCN2)cc1)Nc1ccc(NC2=NCCN2)cc1`, the equilibrium dissociation constant (Kd) worked out at 159 µM in [1] (read-out: Kd), 8.06 µM in assay [4] and 11.6 µM in assay [5]. For the same compound, the Ratio in the assay listed under Homo sapiens [2] and in the assay filed under Homo sapiens [3] was 100 throughout. Further, in the assay listed under Homo sapiens [17], the Selectivity ratio was determined as 10.
